Measurements: patent US20060069132A1, “Azolecarboxamide herbicides” (priority 2004, published 2006)

Assays:
barnyardgrass [1] = assay: Test B pre-/postemergence herbicide test; format: in vivo, Echinochloa crus-galli; conditions: for Barnyardgrass plant response rating (0 to 100 scale) / Plant response rating, Barnyardgrass: preemergence; for Barnyardgrass plant response rating: postemergence, scale 0 (no effect) to 100 (complete control)
Method in brief: (§1)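 Plants compared with untreated controls 13–15 days post-treatment and given a visual 0–100 injury score. Applications: preemergence to seeds; postemergence at 1- to 4-leaf (2–18 cm); paddy species flooded, 2-leaf stage. Vehicle non-phytotoxic, surfactant included.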

Surinam grass = assay: Test B pre-/postemergence herbicide test; format: in vivo, Urochloa decumbens; conditions: for Surinam Grass plant response rating (0 to 100 scale) / Plant response rating, Surinam Grass: preemergence; for Surinam Grass plant response rating: postemergence
Method in brief: as §1

cocklebur = assay: Test B pre-/postemergence herbicide test; format: in vivo, Xanthium strumarium; conditions: for Cocklebur plant response rating (0 to 100 scale) / Plant response rating, Cocklebur: preemergence; for Cocklebur plant response rating: postemergence, scale 0 (no effect) to 100 (complete control)
Method in brief: as §1

corn = assay: Test B pre-/postemergence herbicide test; format: in vivo, Zea mays; conditions: for Corn plant response rating (0 to 100 scale) / Plant response rating, Corn: preemergence; for Corn plant response rating: postemergence
Method in brief: as §1

large crabgrass = assay: Test B pre-/postemergence herbicide test; format: in vivo, Digitaria sanguinalis; conditions: for Crabgrass, Large plant response rating (0 to 100 scale) / Plant response rating, Crabgrass, Large: preemergence; for Crabgrass, Large plant response rating: postemergence
Method in brief: as §1

giant foxtail = assay: Test B pre-/postemergence herbicide test; format: in vivo, Setaria faberi; conditions: for Foxtail, Giant plant response rating (0 to 100 scale) / Plant response rating, Foxtail, Giant: preemergence; for Foxtail, Giant plant response rating: postemergence
Method in brief: as §1

lambsquarters = assay: Test B pre-/postemergence herbicide test; format: in vivo, Chenopodium album; conditions: for Lambsquarters plant response rating (0 to 100 scale) / Plant response rating, Lambsquarters: preemergence; for Lambsquarters plant response rating: postemergence
Method in brief: as §1

morningglory = assay: Test B pre-/postemergence herbicide test; format: in vivo, Ipomoea coccinea; conditions: for Morningglory plant response rating (0 to 100 scale) / Plant response rating, Morningglory: preemergence; for Morningglory plant response rating: postemergence
Method in brief: as §1

pigweed = assay: Test B pre-/postemergence herbicide test; format: in vivo, Amaranthus retroflexus; conditions: for Pigweed plant response rating (0 to 100 scale) / Plant response rating, Pigweed: preemergence; for Pigweed plant response rating: postemergence
Method in brief: as §1

rice [2] = assay: Test B pre-/postemergence herbicide test; format: in vivo, Oryza sativa; conditions: preemergence; for Rice plant response rating (0 to 100 scale): 125 g ai/ha; for Plant response rating, Rice: 500 g ai/ha
Method in brief: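 Greenhouse pot assay with simultaneous preemergence (treated seed) and postemergence (2–18 cm seedlings) applications of surfactant-containing, non-phytotoxic solvent formulations. Response scored visually 13–15 days later on a 0–100 scale, 100 meaning complete control.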

velvetleaf = assay: Test B pre-/postemergence herbicide test; format: in vivo, Abutilon theophrasti; conditions: for Velvetleaf plant response rating (0 to 100 scale) / Plant response rating, Velvetleaf: preemergence; for Velvetleaf plant response rating: postemergence
Method in brief: as §1

blackgrass = assay: Test B postemergence herbicide test; format: in vivo, Alopecurus myosuroides; conditions: postemergence, visual rating, scale 0 (no effect) to 100 (complete control)
Method in brief: (§2)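 Formulated test chemicals went onto postemergence plants measuring 2 to 18 cm, at one to four leaves. For the paddy assay, species had reached two leaves. Scoring took place 13–15 days later by eye, relative to untreated plants, using 0 for no effect up to 100 for full control.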

wheat = assay: Test B postemergence herbicide test; format: in vivo, Triticum aestivum; design: key to Wheat plant response rating: 0 = no effect, 100 = complete control; conditions: postemergence
Method in brief: as §2

wild oat = assay: Test B postemergence herbicide test; format: in vivo, Avena fatua; conditions: postemergence
Method in brief: as §2

rice [3] = assay: Test B flooded paddy test; format: in vivo, Oryza sativa; conditions: 1000 g ai/ha, scale 0 to 100 (0 no effect, 100 complete control)
Method in brief: as §2

[4] = tested on: small flower umbrella sedge; assay: Test B flooded paddy test; format: in vivo, Cyperus difformis; conditions: 1000 g ai/ha, scale 0 to 100 (0 no effect, 100 complete control)
Method in brief: as §2

ducksalad = assay: Test B flooded paddy test; format: in vivo, Heteranthera limosa; conditions: 1000 g ai/ha, scale 0 to 100 (0 no effect, 100 complete control)
Method in brief: as §2

barnyardgrass [5] = assay: Test B flooded paddy test; format: in vivo, Echinochloa crus-galli; conditions: 1000 g ai/ha, scale 0 to 100 (0 no effect, 100 complete control)
Method in brief: as §2

[6] = 125 g ai/ha, 0 = no effect, 100 = complete control
[7] = 500 g ai/ha, visual rating, 0 = no effect, 100 = complete control
[8] = 125 g ai/ha, visual rating, scale 0 (no effect) to 100 (complete control)
[9] = 500 g ai/ha, visual rating, scale 0 (no effect) to 100 (complete control)
[10] = 0 = no effect, 100 = complete control
[11] = visual rating, 0 = no effect, 100 = complete control
[12] = 500 g ai/ha, visual rating 0-100, 0 no effect, 100 complete control
[13] = 500 g ai/ha, scale 0 to 100, 0 is no effect, 100 is complete control

CCN(CC)C(=O)c1cccc(NC(=O)c2nn(C(C)(C)C)cc2Cl)c1 [Compound 218]
10: Surinam Grass plant response rating (Surinam grass; [9]) | Corn plant response rating (corn; [9]) | Crabgrass, Large plant response rating (large crabgrass; [9]) | Lambsquarters plant response rating (lambsquarters; [9]) | Morningglory plant response rating (morningglory; [9])
20: Plant response rating, Crabgrass, Large (large crabgrass; [7]) | Pigweed plant response rating (pigweed; [9]) | Sedge, Umbrella plant response rating ([4]; visual rating, 13 to 15 days)
0: Barnyardgrass plant response rating (0 to 100 scale) (barnyardgrass [1]; [6]) | Plant response rating, Barnyardgrass (barnyardgrass [1]; [7]) | Barnyardgrass plant response rating (barnyardgrass [1]; 125 g ai/ha, visual rating) | Barnyardgrass plant response rating (barnyardgrass [1]; 500 g ai/ha, visual rating) | Surinam Grass plant response rating (0 to 100 scale) (Surinam grass; [6]) | Plant response rating, Surinam Grass (Surinam grass; [7]) | Surinam Grass plant response rating (Surinam grass; [8]) | Cocklebur plant response rating (0 to 100 scale) (cocklebur; [6]) | Plant response rating, Cocklebur (cocklebur; [7]) | Cocklebur plant response rating (cocklebur; 125 g ai/ha, visual rating) | Cocklebur plant response rating (cocklebur; 500 g ai/ha, visual rating) | Corn plant response rating (0 to 100 scale) (corn; [6]) | Plant response rating, Corn (corn; [7]) | Corn plant response rating (corn; [8]) | Crabgrass, Large plant response rating (0 to 100 scale) (large crabgrass; [6]) | Crabgrass, Large plant response rating (large crabgrass; [8]) | Foxtail, Giant plant response rating (0 to 100 scale) (giant foxtail; [6]) | Plant response rating, Foxtail, Giant (giant foxtail; [7]) | Foxtail, Giant plant response rating (giant foxtail; [8]) | Foxtail, Giant plant response rating (giant foxtail; [9]) | Lambsquarters plant response rating (0 to 100 scale) (lambsquarters; [6]) | Plant response rating, Lambsquarters (lambsquarters; [7]) | Lambsquarters plant response rating (lambsquarters; [8]) | Morningglory plant response rating (0 to 100 scale) (morningglory; [6]) | Plant response rating, Morningglory (morningglory; [7]) | Morningglory plant response rating (morningglory; [8]) | Pigweed plant response rating (0 to 100 scale) (pigweed; [6]) | Plant response rating, Pigweed (pigweed; [7]) | Pigweed plant response rating (pigweed; [8]) | Rice plant response rating (0 to 100 scale) (rice [2]; [10]) | Plant response rating, Rice (rice [2]; [11]) | Velvetleaf plant response rating (0 to 100 scale) (velvetleaf; [6]) | Plant response rating, Velvetleaf (velvetleaf; [7]) | Velvetleaf plant response rating (velvetleaf; [8]) | Velvetleaf plant response rating (velvetleaf; [9]) | Blackgrass plant response rating (blackgrass; 125 g ai/ha) | Blackgrass plant response rating (blackgrass; 500 g ai/ha) | Wheat plant response rating (wheat; [8]) | Wheat plant response rating (wheat; [9]) | Oat, Wild plant response rating (wild oat; [8]) | Oat, Wild plant response rating (wild oat; [9]) | Rice plant response rating (rice [3]; visual rating, 13 to 15 days) | Ducksalad plant response rating (ducksalad; visual rating, 13 to 15 days) | Barnyardgrass plant response rating (barnyardgrass [5]; visual rating, 13 to 15 days)

CCNC(=O)c1cccc(NC(=O)c2nn(C(C)(C)C)cc2C(F)(F)F)c1 [Compound 170]
10: Barnyardgrass plant response rating (barnyardgrass [1]; 500 g ai/ha, visual rating) | Surinam Grass plant response rating (Surinam grass; [8]) | Surinam Grass plant response rating (Surinam grass; [9]) | Corn plant response rating (corn; [9]) | Crabgrass, Large plant response rating (large crabgrass; [8]) | Crabgrass, Large plant response rating (large crabgrass; [9]) | Foxtail, Giant plant response rating (giant foxtail; [9]) | Plant response rating, Morningglory (morningglory; [12]) | Velvetleaf plant response rating (velvetleaf; [8]) | Oat, Wild plant response rating (wild oat; [8]) | Oat, Wild plant response rating (wild oat; [9]) | Barnyardgrass plant response rating (barnyardgrass [5]; visual rating, 13 to 15 days)
0: Barnyardgrass plant response rating (0 to 100 scale) (barnyardgrass [1]; [6]) | Barnyardgrass plant response rating (barnyardgrass [1]; 125 g ai/ha, visual rating) | Surinam Grass plant response rating (0 to 100 scale) (Surinam grass; [6]) | Cocklebur plant response rating (0 to 100 scale) (cocklebur; [6]) | Plant response rating, Cocklebur (cocklebur; [12]) | Cocklebur plant response rating (cocklebur; 125 g ai/ha, visual rating) | Cocklebur plant response rating (cocklebur; 500 g ai/ha, visual rating) | Corn plant response rating (0 to 100 scale) (corn; [6]) | Plant response rating, Corn (corn; [12]) | Corn plant response rating (corn; [8]) | Foxtail, Giant plant response rating (0 to 100 scale) (giant foxtail; [6]) | Foxtail, Giant plant response rating (giant foxtail; [8]) | Lambsquarters plant response rating (0 to 100 scale) (lambsquarters; [6]) | Morningglory plant response rating (0 to 100 scale) (morningglory; [6]) | Pigweed plant response rating (0 to 100 scale) (pigweed; [6]) | Rice plant response rating (0 to 100 scale) (rice [2]; [10]) | Plant response rating, Rice (rice [2]; visual rating 0-100, 0 no effect, 100 complete control) | Velvetleaf plant response rating (0 to 100 scale) (velvetleaf; [6]) | Blackgrass plant response rating (blackgrass; 125 g ai/ha) | Blackgrass plant response rating (blackgrass; 500 g ai/ha) | Wheat plant response rating (wheat; [8]) | Wheat plant response rating (wheat; [9]) | Ducksalad plant response rating (ducksalad; visual rating, 13 to 15 days)
90: Plant response rating, Pigweed (pigweed; [12])
20: Crabgrass, Large plant response rating (0 to 100 scale) (large crabgrass; [6]) | Plant response rating, Foxtail, Giant (giant foxtail; [12]) | Plant response rating, Velvetleaf (velvetleaf; [12]) | Velvetleaf plant response rating (velvetleaf; [9]) | Rice plant response rating (rice [3]; visual rating, 13 to 15 days) | Sedge, Umbrella plant response rating ([4]; visual rating, 13 to 15 days)
60: Lambsquarters plant response rating (lambsquarters; [8])
70: Lambsquarters plant response rating (lambsquarters; [9])
80: Plant response rating, Crabgrass, Large (large crabgrass; [12]) | Plant response rating, Lambsquarters (lambsquarters; [12]) | Morningglory plant response rating (morningglory; [9])
50: Pigweed plant response rating (pigweed; [9])
30: Plant response rating, Barnyardgrass (barnyardgrass [1]; [12]) | Plant response rating, Surinam Grass (Surinam grass; [12]) | Morningglory plant response rating (morningglory; [8]) | Pigweed plant response rating (pigweed; [8])

C=CCN(CC=C)C(=O)c1cncc(NC(=O)c2cc(C(C)(C)C)nn2CC)c1 [Compound 262]
50: Lambsquarters plant response rating (lambsquarters; [8]) | Pigweed plant response rating (0 to 100 scale) (pigweed; [6])
70: Pigweed plant response rating (pigweed; [8])
40: Lambsquarters plant response rating (0 to 100 scale) (lambsquarters; [6])
80: Lambsquarters plant response rating (lambsquarters; [13]) | Pigweed plant response rating (pigweed; [13]) | Plant response rating, Velvetleaf (velvetleaf; [7])
10: Plant response rating, Barnyardgrass (barnyardgrass [1]; [7]) | Barnyardgrass plant response rating (barnyardgrass [1]; 500 g ai/ha, visual rating) | Plant response rating, Surinam Grass (Surinam grass; [7]) | Cocklebur plant response rating (cocklebur; 500 g ai/ha, visual rating) | Foxtail, Giant plant response rating (giant foxtail; [8]) | Wheat plant response rating (wheat; [13])
30: Plant response rating, Crabgrass, Large (large crabgrass; [7])
100: Plant response rating, Pigweed (pigweed; [7])
0: Barnyardgrass plant response rating (0 to 100 scale) (barnyardgrass [1]; [6]) | Barnyardgrass plant response rating (barnyardgrass [1]; 125 g ai/ha, visual rating) | Surinam Grass plant response rating (0 to 100 scale) (Surinam grass; [6]) | Surinam Grass plant response rating (Surinam grass; [8]) | Cocklebur plant response rating (0 to 100 scale) (cocklebur; [6]) | Cocklebur plant response rating (cocklebur; 125 g ai/ha, visual rating) | Corn plant response rating (0 to 100 scale) (corn; [6]) | Plant response rating, Corn (corn; [7]) | Corn plant response rating (corn; [8]) | Crabgrass, Large plant response rating (0 to 100 scale) (large crabgrass; [6]) | Crabgrass, Large plant response rating (large crabgrass; [8]) | Foxtail, Giant plant response rating (0 to 100 scale) (giant foxtail; [6]) | Plant response rating, Foxtail, Giant (giant foxtail; [7]) | Morningglory plant response rating (0 to 100 scale) (morningglory; [6]) | Plant response rating, Morningglory (morningglory; [7]) | Morningglory plant response rating (morningglory; [8]) | Morningglory plant response rating (morningglory; [13]) | Rice plant response rating (0 to 100 scale) (rice [2]; [10]) | Plant response rating, Rice (rice [2]; [11]) | Velvetleaf plant response rating (0 to 100 scale) (velvetleaf; [6]) | Blackgrass plant response rating (blackgrass; 125 g ai/ha) | Wheat plant response rating (wheat; [8]) | Oat, Wild plant response rating (wild oat; [8]) | Oat, Wild plant response rating (wild oat; [13]) | Rice plant response rating (rice [3]) | Sedge, Umbrella plant response rating [4] | Ducksalad plant response rating (ducksalad) | Barnyardgrass plant response rating (barnyardgrass [5])
20: Surinam Grass plant response rating (Surinam grass; [13]) | Corn plant response rating (corn; [13]) | Crabgrass, Large plant response rating (large crabgrass; [13]) | Foxtail, Giant plant response rating (giant foxtail; [13]) | Velvetleaf plant response rating (velvetleaf; [8]) | Velvetleaf plant response rating (velvetleaf; [13]) | Blackgrass plant response rating (blackgrass; 500 g ai/ha)
90: Plant response rating, Lambsquarters (lambsquarters; [7])
